The values that follow come from PubChem BioAssay (NCI).

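Five concentrations, 48 hours, 96-well plates. Definition used: TGI = concentration required for complete inhibition of growth.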 Where a SMILES comes first, the peptide text is derived from it. [ ]: non-standard residue; d: D form. pGlu = O=C1CC[CH](C(=O)O)N1

Test systems include RXF 393 renal; OVCAR-8 ovarian; T-47D breast; BT-549 breast; SNB-75 CNS; UO-31 renal; 786-0 renal; SNB-19 CNS; NCI-H23 lung; A549 NSCLC; HCT-116 colon; SF-295 CNS; SK-OV-3 ovarian; UACC-62 melanoma; M14 melanoma; HS 578T breast; MALME-3M melanoma; HCT-15 colon; HCC-2998 colon; SK-MEL-2 melanoma.
Holding throughout (assay): NCI tumour cell line growth inhibition, 48 h

For the molecule `COC(NC(=O)Nc1ccc(C)cc1)(C(F)(F)F)C(F)(F)F`, the TGI is 71.7 µM with RXF 393 renal; 78.5 µM in the assay with OVCAR-8 ovarian; 97.7 µM in the assay with T-47D breast; 83.5 µM in the assay with BT-549 breast; > 100 µM with SNB-75 CNS; 53.6 µM in the assay on UO-31 renal. Further, the TGI with 786-0 renal is > 100 µM; with SNB-19 CNS it was 87.2 µM; with NCI-H23 lung, 89.8 µM; with A549 NSCLC, > 100 µM; in the assay with HCT-116 colon it was > 100 µM; with SF-295 CNS, 90.7 µM. Further, the TGI was 76.4 µM in the assay on SK-OV-3 ovarian; > 100 µM in the assay on UACC-62 melanoma; > 100 µM in the assay with M14 melanoma; > 100 µM in the assay with HS 578T breast; > 100 µM in the assay on MALME-3M melanoma.
In the case of `C=CCC1(C(=O)OC)CCC/C(=N\O)C1` (stereo not given), the TGI in the assay on HCT-15 colon, in the assay with OVCAR-8 ovarian, in the assay with T-47D breast, with BT-549 breast, in the assay on SNB-75 CNS and in the assay on 786-0 renal was > 10 µM each time. Besides, the TGI in the assay on SNB-19 CNS, in the assay on NCI-H23 lung, in the assay on A549 NSCLC, in the assay on HCT-116 colon, in the assay on SF-295 CNS and in the assay with SK-OV-3 ovarian was > 10 µM in each case. The TGI with UACC-62 melanoma, in the assay with M14 melanoma, with HS 578T breast, with HCC-2998 colon and in the assay on MALME-3M melanoma was > 10 µM each time.
For `Cc1cn(C2CC(n3cc(Cn4ccc(=O)[nH]c4=O)nn3)C(CO)O2)c(=O)[nH]c1=O` (stereo not given), the TGI in the assay with SK-MEL-2 melanoma, in the assay on RXF 393 renal, with HCT-15 colon, in the assay on OVCAR-8 ovarian, with T-47D breast and with BT-549 breast was > 100 µM in each case. Moreover, the TGI with SNB-75 CNS, in the assay on UO-31 renal, with SNB-19 CNS, in the assay on NCI-H23 lung, with A549 NSCLC and in the assay with HCT-116 colon was > 100 µM throughout. Moreover, the TGI in the assay on SF-295 CNS, in the assay on SK-OV-3 ovarian, in the assay on UACC-62 melanoma, in the assay with M14 melanoma, with HS 578T breast and in the assay on HCC-2998 colon was > 100 µM throughout.
For `CC(NC(=O)C1CCC(=O)N1)C(=O)N1CCCC1C(N)=O` (stereo not drawn) ([pGlu]-Ala-Pro-NH2; configuration not given here), the TGI in the assay with RXF 393 renal, in the assay on HCT-15 colon, in the assay on OVCAR-8 ovarian, in the assay with T-47D breast, in the assay with BT-549 breast and in the assay with SNB-75 CNS was > 100 µM in each case. The TGI in the assay on UO-31 renal, in the assay on 786-0 renal, with SNB-19 CNS, in the assay with NCI-H23 lung, with A549 NSCLC and in the assay on HCT-116 colon was > 100 µM in each case. Also, the TGI in the assay with SF-295 CNS, with SK-OV-3 ovarian, with UACC-62 melanoma, in the assay on M14 melanoma, with HS 578T breast and with HCC-2998 colon was > 100 µM in each case. Also, the TGI in the assay on MALME-3M melanoma was > 100 µM.
Turning to `COc1ccc2[nH]cc(CCNC(=O)[C@H](Cc3ccc(O)cc3)NC(=O)[C@@H](NCC(F)(F)F)C(C)C)c2c1`, the TGI with SK-MEL-2 melanoma, in the assay on RXF 393 renal, with HCT-15 colon, in the assay with OVCAR-8 ovarian, in the assay on BT-549 breast and with UO-31 renal was > 100 µM throughout. Moreover, the TGI in the assay on 786-0 renal, in the assay with SNB-19 CNS, in the assay on NCI-H23 lung, in the assay on A549 NSCLC, in the assay on HCT-116 colon and in the assay on SF-295 CNS was > 100 µM throughout. Moreover, the TGI with SK-OV-3 ovarian was > 100 µM; in the assay on UACC-62 melanoma, > 100 µM; in the assay with M14 melanoma, > 100 µM; in the assay with HS 578T breast, 91.1 µM; in the assay on MALME-3M melanoma it was > 100 µM.
Regarding `C=C1C(C(=O)OC)[C@H]1C(=O)OC` (stereo not given in full), the TGI in the assay on SK-MEL-2 melanoma, with RXF 393 renal, in the assay on HCT-15 colon, in the assay with OVCAR-8 ovarian, with T-47D breast and in the assay with BT-549 breast was > 100 µM in each case. Also, the TGI in the assay on SNB-75 CNS, with UO-31 renal, in the assay with 786-0 renal, with SNB-19 CNS, with NCI-H23 lung and in the assay on A549 NSCLC was > 100 µM throughout. Also, the TGI in the assay on HCT-116 colon, with SF-295 CNS, with SK-OV-3 ovarian, in the assay on UACC-62 melanoma, in the assay on M14 melanoma and in the assay on HS 578T breast was > 100 µM throughout. In addition, the TGI in the assay with HCC-2998 colon is > 100 µM.
With `CC(C)(C)OC(=O)NCC(CNC(=O)OC(C)(C)C)C(N)=O`, the TGI with RXF 393 renal, in the assay on HCT-15 colon, in the assay on OVCAR-8 ovarian, with T-47D breast, in the assay on BT-549 breast and in the assay with UO-31 renal was > 100 µM throughout. Besides, the TGI with 786-0 renal, in the assay with SNB-19 CNS, in the assay on NCI-H23 lung, in the assay with A549 NSCLC, with HCT-116 colon and in the assay on SF-295 CNS was > 100 µM in each case. Also, the TGI with SK-OV-3 ovarian, with UACC-62 melanoma, in the assay on M14 melanoma, with HS 578T breast, with HCC-2998 colon and in the assay with MALME-3M melanoma was > 100 µM each time.
In the case of `CN(O)C(=O)CCC(NC(=O)CCC(N)C(=O)O)C(=O)NCC(=O)O` (stereo not given), the TGI in the assay with SK-MEL-2 melanoma, with RXF 393 renal, in the assay with HCT-15 colon, in the assay with OVCAR-8 ovarian, in the assay on T-47D breast and with BT-549 breast was > 100 µM each time. Also, the TGI in the assay with SNB-75 CNS, with UO-31 renal, in the assay with 786-0 renal, with SNB-19 CNS, with NCI-H23 lung and in the assay with A549 NSCLC was > 100 µM each time. Also, the TGI in the assay on HCT-116 colon, in the assay with SF-295 CNS, in the assay with SK-OV-3 ovarian, in the assay on UACC-62 melanoma, with M14 melanoma and in the assay with HS 578T breast was > 100 µM each time. The TGI in the assay with HCC-2998 colon was > 100 µM.
As for `CCOC(=O)CNC(=O)C(CCC(=O)N(C)O)NC(=O)CCC(N)C(=O)O` (stereo not given), the TGI with SK-MEL-2 melanoma, in the assay with RXF 393 renal, with HCT-15 colon, with OVCAR-8 ovarian, in the assay with T-47D breast and in the assay on BT-549 breast was > 100 µM each time. The TGI in the assay with SNB-75 CNS, in the assay on UO-31 renal, in the assay with 786-0 renal, in the assay on SNB-19 CNS, in the assay with NCI-H23 lung and in the assay on A549 NSCLC was > 100 µM in each case. Besides, the TGI in the assay on HCT-116 colon, in the assay with SF-295 CNS, in the assay with SK-OV-3 ovarian, in the assay on UACC-62 melanoma, in the assay with M14 melanoma and in the assay on HS 578T breast was > 100 µM throughout. For the same molecule, in the assay on HCC-2998 colon, the TGI was > 100 µM.
For the molecule `COc1ccc(/C=N\N(C)Cc2cccc3ccsc23)cc1`, the TGI in the assay with RXF 393 renal, in the assay with HCT-15 colon, in the assay with OVCAR-8 ovarian, in the assay with T-47D breast, in the assay with BT-549 breast and in the assay with SNB-75 CNS was > 100 µM in each case. For the same molecule, the TGI in the assay on UO-31 renal, in the assay on 786-0 renal, with SNB-19 CNS, in the assay with NCI-H23 lung, in the assay on A549 NSCLC and in the assay with HCT-116 colon was > 100 µM each time. Also, the TGI in the assay on SF-295 CNS, in the assay on SK-OV-3 ovarian, in the assay with UACC-62 melanoma, in the assay with M14 melanoma, with HS 578T breast and in the assay with HCC-2998 colon was > 100 µM in each case. Besides, the TGI with MALME-3M melanoma is > 100 µM.
In the case of `O=S(=O)(O)c1ccc(N=Nc2ccccc2)cc1`, the TGI with SK-MEL-2 melanoma, with RXF 393 renal, with HCT-15 colon, in the assay on OVCAR-8 ovarian, with T-47D breast and in the assay with BT-549 breast was > 100 µM in each case. Further, the TGI in the assay on UO-31 renal, in the assay on 786-0 renal, in the assay on SNB-19 CNS, with NCI-H23 lung, in the assay on A549 NSCLC and with HCT-116 colon was > 100 µM each time. Also, the TGI in the assay with SF-295 CNS, in the assay with SK-OV-3 ovarian, in the assay on UACC-62 melanoma, in the assay with M14 melanoma, in the assay with HS 578T breast and in the assay with HCC-2998 colon was > 100 µM each time.
Turning to `O=C(O)/C=C/c1ccc(Oc2ccccc2C(=O)O)o1`, the TGI in the assay on HCT-15 colon, in the assay on OVCAR-8 ovarian, with T-47D breast, with BT-549 breast, in the assay on SNB-75 CNS and in the assay with 786-0 renal was > 10 µM in each case. Moreover, the TGI with SNB-19 CNS, with NCI-H23 lung, in the assay with A549 NSCLC, in the assay with HCT-116 colon, with SF-295 CNS and with SK-OV-3 ovarian was > 10 µM throughout. Moreover, the TGI in the assay on UACC-62 melanoma, with M14 melanoma, with HS 578T breast, in the assay on HCC-2998 colon and in the assay on MALME-3M melanoma was > 10 µM each time.
Regarding `Cc1c(NC(=S)Nc2ccc([N+](=O)[O-])cc2)c(=O)n(-c2ccccc2)n1C`, the TGI with RXF 393 renal, with HCT-15 colon, with OVCAR-8 ovarian, in the assay with BT-549 breast, in the assay with SNB-75 CNS and with UO-31 renal was > 100 µM throughout. For the same molecule, the TGI with 786-0 renal, in the assay with SNB-19 CNS, in the assay with NCI-H23 lung, in the assay with A549 NSCLC, in the assay with HCT-116 colon and in the assay on SF-295 CNS was > 100 µM each time. Besides, the TGI with SK-OV-3 ovarian, in the assay with UACC-62 melanoma, in the assay with M14 melanoma, with HS 578T breast, in the assay on HCC-2998 colon and with MALME-3M melanoma was > 100 µM in each case.
For `COc1c2c(c3c(c1OC)c(=O)c1ccccc1n3C)OCO2`, the TGI in the assay with SK-MEL-2 melanoma, with HCT-15 colon, in the assay on OVCAR-8 ovarian, with T-47D breast, in the assay on BT-549 breast and in the assay on SNB-75 CNS was > 100 µM each time. Besides, the TGI with UO-31 renal, in the assay on 786-0 renal, with SNB-19 CNS, in the assay with NCI-H23 lung, in the assay on A549 NSCLC and in the assay with HCT-116 colon was > 100 µM throughout. The TGI in the assay with SF-295 CNS, in the assay on SK-OV-3 ovarian, with UACC-62 melanoma, in the assay on M14 melanoma, in the assay on HS 578T breast and in the assay with HCC-2998 colon was > 100 µM in each case.
Take `COC(=O)c1ccc(NCc2cc(OC)ccc2OC)cc1`: the TGI in the assay with SK-MEL-2 melanoma, in the assay on HCT-15 colon, in the assay with OVCAR-8 ovarian, in the assay on BT-549 breast, in the assay with SNB-75 CNS and in the assay with UO-31 renal was > 100 µM throughout. Also, the TGI in the assay with 786-0 renal, in the assay on SNB-19 CNS, in the assay with NCI-H23 lung, in the assay with A549 NSCLC, in the assay on HCT-116 colon and with SK-OV-3 ovarian was > 100 µM throughout. Further, the TGI with UACC-62 melanoma, in the assay on M14 melanoma, in the assay on HS 578T breast, in the assay with HCC-2998 colon and in the assay on MALME-3M melanoma was > 100 µM in each case.
